In patent US20260240847A1, “COMPOUNDS WITH ANTI-TUMOR ACTIVITY AGAINST CANCER CELLS BEARING TYROSINE KINASE INHIBITOR RESISTANT EGFR MUTATIONS” (BOARD OF REGENTS, THE UNIVERSITY OF TEXAS SYSTEM, priority 2019, published 2026) one finds IC50 data, which are given here for one molecule.

Experiment in all cases: Ba/F3 cell viability, Cell Titer Glo
(In general: ATP-based viability assays read luminescence as a measure of living cells.)

In one experiment the target is EGFR E709A (Homo sapiens, UniProt P00533, E709A). The settings on record: read-out: IC50 Values; Ba/F3 cells expressing EGFR E709A, 72 hours.
In a further experiment the target is EGFR K757R (Homo sapiens, UniProt P00533, K757R). The settings on record: read-out: IC50 Values; Ba/F3 cells expressing EGFR K757R, 72 hours.
The next experiment deals with EGFR S768I/V769L (Homo sapiens, UniProt P00533, S768I/V769L). The settings on record: read-out: IC50 Values; Ba/F3 cells expressing EGFR S768I/V769L, 72 hours.
The target of another experiment is EGFR V774M (Homo sapiens, UniProt P00533, V774M). The settings on record: read-out: IC50 Values; Ba/F3 cells expressing EGFR V774M, 72 hours.
For another experiment, the target named is EGFR L858R/T790M/L718Q (Homo sapiens, UniProt P00533, L718Q/L858R/T790M). Conditions: read-out: IC50 Values; Ba/F3 cells expressing EGFR L858R/T790M/L718Q, 72 hours.
The target of a further experiment is EGFR L858R T790M/C797S (Homo sapiens, UniProt P00533, C797S/L858R/T790M). Conditions: read-out: IC50 Values; Ba/F3 cells expressing EGFR L858R T790M/C797S, 72 hours.
Another experiment addresses EGFR T725M (Homo sapiens, UniProt P00533, T725M). The settings on record: read-out: IC50 Values; Ba/F3 cells expressing EGFR T725M, 72 hours.
For a further experiment, the target named is EGFR Ex19delT790M L718V (Homo sapiens, UniProt P00533, DEL746-750/L718V/T790M). Conditions: read-out: IC50 Values; Ba/F3 cells expressing EGFR Ex19delT790M L718V, 72 hours.
EGFR Ex19delT790M L718V, sequence (P00533 with tags, fused parts or gaps L718V/DEL746-750/T790M): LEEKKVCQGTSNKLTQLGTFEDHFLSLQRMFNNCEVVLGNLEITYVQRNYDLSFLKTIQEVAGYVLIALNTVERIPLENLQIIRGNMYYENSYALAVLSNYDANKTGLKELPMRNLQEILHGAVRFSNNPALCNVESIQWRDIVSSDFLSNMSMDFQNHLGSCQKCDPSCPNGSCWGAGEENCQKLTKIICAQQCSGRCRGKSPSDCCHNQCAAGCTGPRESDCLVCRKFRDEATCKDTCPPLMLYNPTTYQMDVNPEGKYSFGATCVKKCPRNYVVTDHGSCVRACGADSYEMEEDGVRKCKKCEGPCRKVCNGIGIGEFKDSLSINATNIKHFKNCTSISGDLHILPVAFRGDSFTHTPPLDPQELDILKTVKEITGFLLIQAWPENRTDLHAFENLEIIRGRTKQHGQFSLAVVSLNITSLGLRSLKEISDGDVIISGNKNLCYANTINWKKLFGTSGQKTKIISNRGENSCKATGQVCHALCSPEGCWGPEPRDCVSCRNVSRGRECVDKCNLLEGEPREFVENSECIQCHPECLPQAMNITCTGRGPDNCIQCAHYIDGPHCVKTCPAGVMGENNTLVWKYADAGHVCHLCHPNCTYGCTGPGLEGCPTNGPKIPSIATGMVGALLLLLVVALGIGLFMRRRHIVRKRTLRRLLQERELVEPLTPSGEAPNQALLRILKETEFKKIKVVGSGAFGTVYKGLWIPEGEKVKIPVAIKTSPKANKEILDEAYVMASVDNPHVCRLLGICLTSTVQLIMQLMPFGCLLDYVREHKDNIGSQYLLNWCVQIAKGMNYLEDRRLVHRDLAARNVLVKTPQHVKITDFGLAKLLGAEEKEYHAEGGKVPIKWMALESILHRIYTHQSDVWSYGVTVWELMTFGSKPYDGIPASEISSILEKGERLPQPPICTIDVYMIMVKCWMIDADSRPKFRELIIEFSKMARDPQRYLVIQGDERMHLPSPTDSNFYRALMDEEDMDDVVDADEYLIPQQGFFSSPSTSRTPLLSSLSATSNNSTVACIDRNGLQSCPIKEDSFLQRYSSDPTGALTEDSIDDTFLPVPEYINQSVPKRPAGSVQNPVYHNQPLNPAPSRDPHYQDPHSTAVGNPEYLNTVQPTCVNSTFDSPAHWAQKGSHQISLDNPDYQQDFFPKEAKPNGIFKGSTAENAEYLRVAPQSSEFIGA
Another experiment concerns the target EGFR L858R G796S (Homo sapiens, UniProt P00533, G796S/L858R). The settings on record: read-out: IC50 Values; Ba/F3 cells expressing EGFR L858R G796S, 72 hours.
Experiment [1] concerns the target EGFR L747 K754del insATSPE (Homo sapiens, UniProt P00533, DEL747-749/K754E). The settings on record: read-out: IC50 Values; Ba/F3 cells expressing EGFR L747 K754del insATSPE, 72 hours.
For a further experiment, the target named is EGFR Ex19del L718V (Homo sapiens, UniProt P00533, DEL746-750/L718V). Conditions: read-out: IC50 Values; Ba/F3 cells expressing EGFR Ex19del L718V, 72 hours.
EGFR Ex19del L718V, sequence (P00533 with tags, fused parts or gaps L718V/DEL746-750): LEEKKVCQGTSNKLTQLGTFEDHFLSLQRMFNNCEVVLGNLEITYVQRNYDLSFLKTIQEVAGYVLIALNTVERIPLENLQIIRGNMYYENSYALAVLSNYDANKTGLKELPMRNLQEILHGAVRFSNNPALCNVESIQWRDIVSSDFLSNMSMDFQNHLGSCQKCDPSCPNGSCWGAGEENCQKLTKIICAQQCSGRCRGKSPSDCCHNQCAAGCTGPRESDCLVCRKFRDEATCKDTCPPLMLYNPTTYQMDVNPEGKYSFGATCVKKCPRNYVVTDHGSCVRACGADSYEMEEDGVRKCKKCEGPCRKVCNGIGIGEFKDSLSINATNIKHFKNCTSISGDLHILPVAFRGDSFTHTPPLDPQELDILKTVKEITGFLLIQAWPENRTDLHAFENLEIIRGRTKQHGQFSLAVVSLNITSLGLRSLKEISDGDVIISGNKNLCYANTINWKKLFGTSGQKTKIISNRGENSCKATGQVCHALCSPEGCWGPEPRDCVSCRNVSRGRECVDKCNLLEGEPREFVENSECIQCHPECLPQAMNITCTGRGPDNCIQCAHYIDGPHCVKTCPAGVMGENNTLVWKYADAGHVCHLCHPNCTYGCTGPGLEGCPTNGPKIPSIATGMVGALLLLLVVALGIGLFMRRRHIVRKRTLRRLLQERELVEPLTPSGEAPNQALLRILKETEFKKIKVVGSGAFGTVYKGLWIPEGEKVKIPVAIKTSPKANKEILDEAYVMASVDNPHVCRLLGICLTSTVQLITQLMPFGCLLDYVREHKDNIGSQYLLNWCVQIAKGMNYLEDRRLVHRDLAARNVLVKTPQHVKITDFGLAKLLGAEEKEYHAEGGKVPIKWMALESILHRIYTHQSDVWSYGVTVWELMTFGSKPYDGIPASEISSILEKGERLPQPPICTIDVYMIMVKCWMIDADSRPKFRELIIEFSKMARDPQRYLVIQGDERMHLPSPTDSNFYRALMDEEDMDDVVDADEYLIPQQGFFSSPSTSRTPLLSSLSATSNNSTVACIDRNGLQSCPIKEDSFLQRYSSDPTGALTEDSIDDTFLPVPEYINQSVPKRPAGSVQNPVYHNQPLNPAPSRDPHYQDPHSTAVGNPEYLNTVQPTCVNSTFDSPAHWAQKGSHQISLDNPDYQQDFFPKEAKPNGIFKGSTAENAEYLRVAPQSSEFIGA
In a further experiment the target is EGFR D770insNPG (Homo sapiens, UniProt P00533, INS770NPG). Conditions: read-out: IC50 Values; Ba/F3 cells expressing EGFR D770insNPG, 72 hours.
The next experiment has as its target EGFR L718Q T790M (Homo sapiens, UniProt P00533, L718Q/T790M). Conditions: read-out: IC50 Values; Ba/F3 cells expressing EGFR L718Q T790M, 72 hours.
Another experiment addresses EGFR S768dupSVD (Homo sapiens, UniProt P00533, DUP768-770). The settings on record: read-out: IC50 Values; Ba/F3 cells expressing EGFR S768dupSVD, 72 hours.
In the next experiment the target is EGFR Ex19del/L792H (Homo sapiens, UniProt P00533, DEL746-750/L792H). Conditions: read-out: IC50 Values; Ba/F3 cells expressing EGFR Ex19del/L792H, 72 hours.
EGFR Ex19del/L792H, sequence (P00533 with tags, fused parts or gaps DEL746-750/L792H): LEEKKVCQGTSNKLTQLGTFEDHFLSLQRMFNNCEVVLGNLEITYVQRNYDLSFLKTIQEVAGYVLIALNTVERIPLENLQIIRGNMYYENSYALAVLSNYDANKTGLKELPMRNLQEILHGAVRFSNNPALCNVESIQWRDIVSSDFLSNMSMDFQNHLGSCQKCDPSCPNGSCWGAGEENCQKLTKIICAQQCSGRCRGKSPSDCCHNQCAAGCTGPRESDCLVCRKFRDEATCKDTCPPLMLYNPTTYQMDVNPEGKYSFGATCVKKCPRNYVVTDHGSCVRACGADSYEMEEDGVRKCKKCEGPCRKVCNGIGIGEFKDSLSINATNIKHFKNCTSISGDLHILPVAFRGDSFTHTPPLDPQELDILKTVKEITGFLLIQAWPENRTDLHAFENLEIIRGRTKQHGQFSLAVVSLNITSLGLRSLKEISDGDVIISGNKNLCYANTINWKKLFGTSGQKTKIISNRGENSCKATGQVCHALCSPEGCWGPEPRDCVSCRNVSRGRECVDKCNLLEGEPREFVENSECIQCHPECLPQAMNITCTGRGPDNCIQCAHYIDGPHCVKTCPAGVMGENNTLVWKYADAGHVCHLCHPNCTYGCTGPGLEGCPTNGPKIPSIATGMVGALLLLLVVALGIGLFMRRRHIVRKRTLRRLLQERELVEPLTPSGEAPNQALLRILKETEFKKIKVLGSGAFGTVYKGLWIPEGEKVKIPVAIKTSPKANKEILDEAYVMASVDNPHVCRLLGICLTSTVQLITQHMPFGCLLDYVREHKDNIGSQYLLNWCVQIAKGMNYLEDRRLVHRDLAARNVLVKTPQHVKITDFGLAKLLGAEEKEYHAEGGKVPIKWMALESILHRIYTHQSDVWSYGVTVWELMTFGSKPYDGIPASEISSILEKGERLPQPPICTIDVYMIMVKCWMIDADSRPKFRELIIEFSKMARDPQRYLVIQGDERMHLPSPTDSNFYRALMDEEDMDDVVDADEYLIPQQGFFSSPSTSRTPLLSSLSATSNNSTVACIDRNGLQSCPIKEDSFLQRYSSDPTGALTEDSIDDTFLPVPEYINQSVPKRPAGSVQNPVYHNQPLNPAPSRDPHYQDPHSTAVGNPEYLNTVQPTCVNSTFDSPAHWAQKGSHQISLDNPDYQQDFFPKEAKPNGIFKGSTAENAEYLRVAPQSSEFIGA
In the next experiment the target is EGFR L858R S784F (Homo sapiens, UniProt P00533, L858R/S784F). Conditions: read-out: IC50 Values; Ba/F3 cells expressing EGFR L858R S784F, 72 hours.
EGFR L858R S784F, sequence (P00533 25-1210 S784F/L858R): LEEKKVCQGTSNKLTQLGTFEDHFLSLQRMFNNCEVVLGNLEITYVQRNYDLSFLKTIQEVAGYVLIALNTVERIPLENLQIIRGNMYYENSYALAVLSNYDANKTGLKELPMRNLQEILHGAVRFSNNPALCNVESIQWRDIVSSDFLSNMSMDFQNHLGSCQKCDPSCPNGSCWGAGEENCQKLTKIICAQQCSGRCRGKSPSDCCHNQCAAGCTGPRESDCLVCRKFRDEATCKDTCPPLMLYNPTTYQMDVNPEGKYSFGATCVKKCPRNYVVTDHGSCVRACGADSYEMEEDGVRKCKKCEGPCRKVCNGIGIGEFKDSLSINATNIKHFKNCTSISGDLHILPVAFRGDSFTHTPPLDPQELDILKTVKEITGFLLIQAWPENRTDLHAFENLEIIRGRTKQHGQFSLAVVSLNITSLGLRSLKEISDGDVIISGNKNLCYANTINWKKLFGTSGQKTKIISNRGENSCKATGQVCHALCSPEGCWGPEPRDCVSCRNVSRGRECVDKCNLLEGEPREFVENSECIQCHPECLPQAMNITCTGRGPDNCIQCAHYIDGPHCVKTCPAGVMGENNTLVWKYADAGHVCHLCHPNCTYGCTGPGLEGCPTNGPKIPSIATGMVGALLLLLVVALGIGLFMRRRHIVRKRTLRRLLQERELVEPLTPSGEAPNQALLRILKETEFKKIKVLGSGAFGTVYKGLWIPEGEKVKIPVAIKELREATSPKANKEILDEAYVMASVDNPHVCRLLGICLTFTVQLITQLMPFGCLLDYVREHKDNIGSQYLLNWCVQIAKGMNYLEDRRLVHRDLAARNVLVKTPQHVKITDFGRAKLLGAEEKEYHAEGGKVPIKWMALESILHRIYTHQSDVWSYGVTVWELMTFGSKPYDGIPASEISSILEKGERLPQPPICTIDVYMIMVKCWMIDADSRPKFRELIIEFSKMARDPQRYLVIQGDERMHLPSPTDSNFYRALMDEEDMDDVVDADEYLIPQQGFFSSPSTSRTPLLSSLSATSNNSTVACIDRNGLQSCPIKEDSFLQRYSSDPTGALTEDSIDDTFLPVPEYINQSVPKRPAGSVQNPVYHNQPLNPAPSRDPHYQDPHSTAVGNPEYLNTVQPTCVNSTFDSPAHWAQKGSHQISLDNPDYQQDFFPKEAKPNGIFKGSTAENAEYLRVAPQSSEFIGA
In the next experiment the target is EGFR E709K G719S (Homo sapiens, UniProt P00533, E709K/G719S). Conditions: read-out: IC50 Values; Ba/F3 cells expressing EGFR E709K G719S, 72 hours.
The target in another experiment is EGFR G719A L861Q (Homo sapiens, UniProt P00533, G719A/L861Q). The settings on record: read-out: IC50 Values; Ba/F3 cells expressing EGFR G719A L861Q, 72 hours.
For the next experiment, the target named is EGFR S768I (Homo sapiens, UniProt P00533, S768I). Conditions: read-out: IC50 Values; Ba/F3 cells expressing EGFR S768I, 72 hours.
Another experiment concerns the target EGFR V769L (Homo sapiens, UniProt P00533, V769L). Conditions: read-out: IC50 Values; Ba/F3 cells expressing EGFR V769L, 72 hours.

Molecules are shown by their SMILES.

The term IC50 denotes the concentration that gives 50% inhibition.

As for `C=CC(=O)N1CC[C@@H](Oc2nc(Nc3ccc(N4CCC(N5CCN(C)CC5)CC4)cc3)c(C(N)=O)nc2CC)C1` [Naquotinib], the IC50 is 0.255 µM on EGFR E709A; 0.122 µM at EGFR K757R; 0.234 µM on EGFR S768I/V769L; 0.0385 µM on EGFR V774M; 0.0918 µM on EGFR L858R/T790M/L718Q; 4.35 µM on EGFR L858R T790M/C797S. In addition, the IC50 on EGFR T725M is 0.0776 µM; on EGFR Ex19delT790M L718V it was 0.00772 µM; on EGFR L858R G796S, 0.423 µM; in [1] it was 0.00058 µM; at EGFR Ex19del L718V, 0.0139 µM; at EGFR D770insNPG it was 0.175 µM. Besides, the 50% inhibitory concentration (IC50) at EGFR L718Q T790M was 0.212 µM; on EGFR S768dupSVD, 0.153 µM; on EGFR Ex19del/L792H it was 0.00394 µM; at EGFR L858R S784F, 0.354 µM; on EGFR E709K G719S it was 0.0152 µM; on EGFR G719A L861Q it was 0.00422 µM. Further, the concentration for half-maximal inhibition (IC50) came out at 0.503 µM at EGFR S768I and 0.219 µM at EGFR V769L.
